{"source": "patent US20050058600A1", "about": "“3,3'-Diindolylmethane antiandrogenic compositions” (priority 2003, published 2005)", "key": {"GFP-AR": {"test_system": "GFP-AR", "experiment": "Fluorescence imaging of GFP-AR in transfected PC-3 cells", "assay_type": "cell-based", "experimental": "Transient Transfections with Reporters and Luciferase Assay. LNCaP and PC-3 cells were transfected, with some modifications, as previously described (20). For AR transactivation, cells were transfected with 0.1 μg of MMTV-Luc or pPSA-Luc per plate. Co-transfection experiments with pCMV-hAR or pCMV-GFP-rAR, 0.1 μg per plate was also used. For experiments involving GFP fluorescence imaging, treatments were not added until 30 h after transfection.\nFluorescence Imaging. PC-3 cells were plated on cover slips in six-well culture plates at 1.5×10^5 cells per well in 5% DCC-FBS-DMEM medium. Cells were co-transfected with pCMV-GFP-rAR and pPSA-Luc or MMTV-Luc as indicated above. Cover slips were placed on microscope slides and images were taken at 1000×."}, "PSA gene expression": {"test_system": "PSA gene expression", "experiment": "Northern blot of endogenous PSA mRNA in LNCaP cells", "assay_type": "cell-based, human", "experimental": "RNA Extraction, mRNA Purification and Northern Hybridization. mRNA isolation and Northern blot analyses were conducted as described previously (20, 31). PSA cDNA and the cDNA probes were biotinylated using NEBlot Phototope kit (New England Biolabs, Beverly, Mass.), purified via precipitation with 3 M sodium acetate (pH 5.2) and washed with 70% ethanol. After hybridization with cDNA probes, the membrane was incubated with streptavidin then biotinylated with alkaline phosphatase followed by the Phototope-CDP-Star assay (New England Biolabs, Beverly, Mass.), and autoradiographed. The amount of mRNA was quantified by Gel Densitometer (Bio-Rad) and normalized with β-actin as an internal control."}}, "data": [{"smiles": "c1ccc2c(Cc3c[nH]c4ccccc34)c[nH]c2c1", "note": "[DIM, 3,3′-diindolylmethane]", "values": [{"measurement": "distribution of GFP-AR fluorescence", "setting": "GFP-AR; DIM alone", "value": "predominantly cytoplasmic distribution"}, {"measurement": "formation of AR foci in the nucleus", "setting": "GFP-AR; DIM treatment with DHT", "value": "prevented the formation of AR foci"}, {"measurement": "inhibition of AR translocation induced by DHT", "setting": "GFP-AR; co-treatment with 50 μM DIM and 1 nM DHT", "value": "partially inhibited"}, {"measurement": "inhibition of PSA mRNA induction by DHT", "setting": "PSA gene expression; 24 h co-treatment with DIM", "value": "up to 80%"}, {"measurement": "decrease in PSA mRNA levels", "setting": "PSA gene expression; DIM treatment, concentration- and time-dependent", "value": "up to 70%"}]}]}
